Data taken from ChEMBL document CHEMBL4699433, “Rational design, synthesis and testing of novel tricyclic topoisomerase inhibitors for the treatment of bacterial infections part 2” (RSC Med Chem, 2020).
Values after ≈ are worked out from the molar mass of the structure shown.

Tests used:
Staphylococcus aureus = experiment: Antibacterial activity against wild type methicillin-sensitive Staphylococcus aureus ATCC 29213 assessed as reduction in bacterial growth by CLSI based broth microdilution method; type: functional
[1] = Thermodynamic solubility of the compound; type: physicochemical; settings: read-out: Therm_solubility
Haemophilus influenzae = experiment: Antibacterial activity against Haemophilus influenzae ATCC 49247 assessed as reduction in bacterial growth by CLSI based broth microdilution method; type: functional
Escherichia coli = experiment: Antibacterial activity against Escherichia coli ATCC 25922 assessed as reduction in bacterial growth by CLSI based broth microdilution method; type: functional
Streptococcus pneumoniae = experiment: Antibacterial activity against Streptococcus pneumoniae ATCC 49619 assessed as reduction in bacterial growth by CLSI based broth microdilution method; type: functional

Compound | MIC (Staphylococcus aureus) [µg/mL] | solubility thermodynamic [1] [µg/mL] | MIC (Haemophilus influenzae) [µg/mL] | MIC (Escherichia coli) [µg/mL] | MIC (Streptococcus pneumoniae) [µg/mL]
Cc1nc2c(=O)n(C3CC3)c3c(Cl)c(N4CC[C@H](CN)C4)c(F)cc3c2o1 | 0.12 (≈ 0.307 µM) | 601 (≈ 1540 µM) | 1 (≈ 2.56 µM) | 0.5 (≈ 1.28 µM) | 0.12 (≈ 0.307 µM)
Cc1nc2c(=O)n(C3CC3)c3c(Cl)c(N4CCC(N(C)C)C4)c(F)cc3c2o1 (stereo unspecified) | 4 (≈ 9.88 µM) |  | 8 (≈ 19.8 µM) | 4 (≈ 9.88 µM) | 4 (≈ 9.88 µM)
Cc1nc2c(=O)n(C3CC3)c3c(Cl)c(N4CC[C@@H](CN)C4)c(F)cc3c2o1 | 0.12 (≈ 0.307 µM) | 950 (≈ 2430 µM) |  | 1 (≈ 2.56 µM) | 0.12 (≈ 0.307 µM)
Cc1nc2c(=O)n(C3CC3)c3cc(N4CCC(N)CC4)c(F)cc3c2o1 | 1 (≈ 2.81 µM) | 1400 (≈ 3940 µM) | 1 (≈ 2.81 µM) | 2 (≈ 5.61 µM) | 1 (≈ 2.81 µM)
Cc1nc2c(=O)n(C3CC3)c3cc(N4CC[C@H](CN)C4)c(F)cc3c2o1 | 1 (≈ 2.81 µM) | 1400 (≈ 3940 µM) | 8 (≈ 22.4 µM) | 2 (≈ 5.61 µM) | 0.5 (≈ 1.4 µM)
Cc1nc2c(=O)n(C3CC3)c3c(Cl)c(N4C[C@@H](C)N[C@@H](C)C4)c(F)cc3c2o1 | 8 (≈ 19.8 µM) | 543 (≈ 1340 µM) | 8 (≈ 19.8 µM) | 4 (≈ 9.88 µM) | 16 (≈ 39.5 µM)
Cc1nc2c(=O)n(C3CC3)c3cc(N4CCC(CN)C4)c(F)cc3c2o1 (stereo unspecified) | 0.5 (≈ 1.4 µM) |  | 8 (≈ 22.4 µM) | 2 (≈ 5.61 µM) | 0.5 (≈ 1.4 µM)
Cc1nc2c(=O)n(C3CC3)c3cc(N4CCC(C(C)N)C4)c(F)cc3c2o1 (stereo unspecified) | 1 (≈ 2.7 µM) | 1350 (≈ 3640 µM) | 4 (≈ 10.8 µM) | 4 (≈ 10.8 µM) | 1 (≈ 2.7 µM)
CNC[C@H]1CCN(c2c(F)cc3c4oc(C)nc4c(=O)n(C4CC4)c3c2Cl)C1 | 0.25 (≈ 0.617 µM) |  | 1 (≈ 2.47 µM) | 2 (≈ 4.94 µM) | 0.25 (≈ 0.617 µM)
Cc1nc2c(=O)n(C3CC3)c3cc(N4CC[C@@H](C(C)(C)N)C4)c(F)cc3c2o1 | 2 (≈ 5.2 µM) | 1350 (≈ 3520 µM) | 16 (≈ 41.6 µM) | 8 (≈ 20.8 µM) | 2 (≈ 5.2 µM)
